Drawing on ChEMBL document CHEMBL3596152, “Synthesis of 1-O-acetylbritannilactone analogues from Inula britannica and in vitro evaluation of their anticancer potential” (Medchemcomm, 2014), this text covers Activity and IC50 for one molecule.

Molecules are shown by their SMILES. Active and inactive are the calls of the source. No cut-off for these calls is given here.

As usually defined, the IC50 is the concentration needed to halve the response being measured.

Assay [1] deals with HeLa. Kind of assay: Cytotoxicity against human HeLa cells assessed as reduction in cell viability at 1.57 to 12.5 uM incubated for 72 hrs by SRB assay. Type of assay: functional, cell-based. (Sulforhodamine B stains cellular protein and so reports cell mass.)
Assay [2] has as its system HeLa. As to the kind of experiment: Cytotoxicity against human HeLa cells assessed as reduction in cell viability at 1.57 to 12.5 uM in presence of 1 mM NAC incubated for 72 hrs by SRB assay. Format: functional, cell-based.
Assay [3] can be described thus: Thiol reactivity in DMSO-d6 solution at 0.05 mmol in presence of beta-mercaptoethanol by 1H NMR Michael acceptor assay.
Assay [4] in a line: Thiol reactivity in DMSO-d6 solution assessed as formation of 1,6-O,O-diacetyl-13-(2-hydroxyethylthiol) britannilactone at 0.05 mmol in presence of beta-mercaptoethanol by 1H NMR Michael acceptor assay.
Assay [5] is described as follows: Thiol reactivity in DMSO-d6 solution assessed as formation of 1-O-acetyl-6-O-benzoyl-13-(2-hydroxyethylthiol) britannilactone at 0.05 mmol in presence of beta-mercaptoethanol by 1H NMR Michael acceptor assay.
The subject of assay [6] is HeLa. As to the kind of experiment: Induction of apoptosis in human HeLa cells assessed as early apoptotic cells levels at 3 uM incubated for 72 hrs by annexin V-FITC and propidium iodide staining based flow cytometry (reference value: 1.4%). Type of assay: functional.
The test system of assay [7] is HeLa. As to the kind of experiment: Induction of apoptosis in human HeLa cells assessed as late apoptotic cells levels at 3 uM incubated for 72 hrs by annexin V-FITC and propidium iodide staining based flow cytometry (reference value: 2.8%). Format: functional. (In general: A flow cytometer gives signals particle by particle.)
Assay [8] deals with HeLa. As to the kind of experiment: Induction of apoptosis in human HeLa cells assessed as necrotic cells levels at 3 uM incubated for 72 hrs by annexin V-FITC and propidium iodide staining based flow cytometry (reference value: 0.2%). Type of assay: functional.
Assay [9] has as its system HeLa. Kind of assay: Induction of apoptosis in human HeLa cells assessed as increase in cleaved caspase-3 levels at 3 to 12 uM incubated for 48 hrs by Western blotting method. Format: functional, cell-based.
The subject of assay [10] is HeLa. As to the kind of experiment: Induction of cell cycle arrest in human HeLa cells assessed as accumulation at G0/G1 phase at 5 uM incubated for 24 hrs by propidium iodide staining based flow cytometry (reference value: 31.1%). Format: functional.
Assay [11] deals with HeLa. As to the kind of experiment: Induction of cell cycle arrest in human HeLa cells assessed as accumulation at S pahse at 5 uM incubated for 24 hrs by propidium iodide staining based flow cytometry (reference value: 40.5%). Type of assay: functional.
In assay [12] the test system is HeLa. As to the kind of experiment: Induction of cell cycle arrest in human HeLa cells assessed as accumulation at G2/M pahse at 5 uM incubated for 24 hrs by propidium iodide staining based flow cytometry (reference value: 28.4%). Format: functional.
For assay [13], the system named is HeLa. Kind of assay: Induction of cell cycle arrest in human HeLa cells assessed as accumulation at G0/G1 phase at 10 uM incubated for 24 hrs by propidium iodide staining based flow cytometry (reference value: 31.1%). Format: functional.
The subject of assay [14] is HeLa. Kind of assay: Induction of cell cycle arrest in human HeLa cells assessed as accumulation at S pahse at 10 uM incubated for 24 hrs by propidium iodide staining based flow cytometry (reference value: 40.5%). Format: functional.
Assay [15] has as its system HeLa. Kind of assay: Induction of cell cycle arrest in human HeLa cells assessed as accumulation at G2/M pahse at 10 uM incubated for 24 hrs by propidium iodide staining based flow cytometry (reference value: 28.4%). Type of assay: functional.
Assay [16] concerns HeLa. Kind of assay: Induction of cell cycle arrest in human HeLa cells assessed as accumulation at G0/G1 phase at 20 uM incubated for 24 hrs by propidium iodide staining based flow cytometry (reference value: 31.1%). Type of assay: functional.
The test system of assay [17] is HeLa. As to the kind of experiment: Induction of cell cycle arrest in human HeLa cells assessed as accumulation at S pahse at 20 uM incubated for 24 hrs by propidium iodide staining based flow cytometry (reference value: 40.5%). Format: functional.
Assay [18] has as its system HeLa. Kind of assay: Induction of cell cycle arrest in human HeLa cells assessed as accumulation at G2/M pahse at 20 uM incubated for 24 hrs by propidium iodide staining based flow cytometry (reference value: 28.4%). Type of assay: functional.
The test system of assay [19] is HeLa. Kind of assay: Induction of apoptosis in human HeLa cells assessed as necrotic cells levels at 6 uM incubated for 72 hrs by annexin V-FITC and propidium iodide staining based flow cytometry (reference value: 0.2%). Format: functional.
Assay [20] has as its system HeLa. As to the kind of experiment: Induction of apoptosis in human HeLa cells assessed as late apoptotic cells levels at 6 uM incubated for 72 hrs by annexin V-FITC and propidium iodide staining based flow cytometry (reference value: 2.8%). Type of assay: functional.
Assay [21] deals with HeLa. As to the kind of experiment: Induction of apoptosis in human HeLa cells assessed as early apoptotic cells levels at 6 uM incubated for 72 hrs by annexin V-FITC and propidium iodide staining based flow cytometry (reference value: 1.4%). Format: functional.
The test system of assay [22] is HCT-116. As to the kind of experiment: Cytotoxicity against human HCT116 cells assessed as reduction in cell viability incubated for 72 hrs by SRB assay. Type of assay: functional, cell-based. The settings on record: HCT-116, 72 h.
Assay [23] deals with HeLa. As to the kind of experiment: Cytotoxicity against human HeLa cells assessed as reduction in cell viability incubated for 72 hrs by SRB assay. Type of assay: functional, cell-based.
Assay [24] is described as follows: Cytotoxicity against human SGC7901 cells assessed as reduction in cell viability incubated for 72 hrs by SRB assay. To be noted: SGC-7901, 72 h. Format: functional, cell-based.

Consider `C=C1C(=O)O[C@@H]2CC(C)=C([C@@H](C)CCCOC(C)=O)[C@@H](OC(=O)c3ccccc3)[C@H]12`, for which the Activity entry in assay [1] is “Dose-dependent effect”; in [6] it was 3.9%; in [7], 6.9%; in [8], 0.3%; in [9] it was “Dose-dependent effect”; in assay [10], 29.5%. The Activity in assay [11] is recorded as 41.3%; in [12], 29.2%; in [13] it was 28.7%; in assay [14], 18.1%; in assay [15], 53.2%; in [16], 20.7%. Also, the Activity in assay [17] is given as 15.6%; in assay [18], 63.7%; in assay [19] it was 3.5%; in assay [20] it was 30%; in assay [21], 4.5%. Besides, the result in [2] was inactive. The outcome in assay [3], in [4] and in [5] was Active. The IC50 in assay [22] was found to be 10.5 µM; in assay [23], 5.19 µM; in [24], 9.93 µM.
